The target of test [1] is T1, Serine/threonine-protein kinase D2 (Homo sapiens) (UniProt Q9BZL6).
T1 sequence (whole entry): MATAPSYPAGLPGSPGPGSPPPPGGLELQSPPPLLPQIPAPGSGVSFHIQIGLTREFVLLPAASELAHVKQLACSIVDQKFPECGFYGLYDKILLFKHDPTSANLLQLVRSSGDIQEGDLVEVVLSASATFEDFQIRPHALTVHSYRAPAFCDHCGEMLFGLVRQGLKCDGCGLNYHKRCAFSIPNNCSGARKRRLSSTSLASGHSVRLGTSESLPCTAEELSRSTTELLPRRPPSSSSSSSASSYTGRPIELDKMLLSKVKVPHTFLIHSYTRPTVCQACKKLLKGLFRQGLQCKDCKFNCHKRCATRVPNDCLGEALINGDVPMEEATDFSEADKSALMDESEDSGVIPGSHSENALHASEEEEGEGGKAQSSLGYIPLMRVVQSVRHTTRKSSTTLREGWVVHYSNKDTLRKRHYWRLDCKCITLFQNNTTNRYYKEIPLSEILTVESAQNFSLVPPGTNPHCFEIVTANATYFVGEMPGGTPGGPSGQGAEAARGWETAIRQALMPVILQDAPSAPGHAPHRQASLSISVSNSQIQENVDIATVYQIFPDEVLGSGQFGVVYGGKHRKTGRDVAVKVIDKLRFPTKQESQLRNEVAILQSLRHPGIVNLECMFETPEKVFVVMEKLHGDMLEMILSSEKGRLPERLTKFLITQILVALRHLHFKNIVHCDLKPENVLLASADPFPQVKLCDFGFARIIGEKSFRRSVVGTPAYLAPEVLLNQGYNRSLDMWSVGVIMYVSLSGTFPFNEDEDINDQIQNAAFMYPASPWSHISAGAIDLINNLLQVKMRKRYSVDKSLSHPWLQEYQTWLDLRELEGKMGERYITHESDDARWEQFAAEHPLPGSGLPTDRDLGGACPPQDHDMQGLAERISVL
Kind of test: Selectivity interaction (Upstate Kinase Profiler service (Millipore)) EUB0000056c PRKD2. The following applies: at 1 µM.

Test [2] addresses Mitogen-activated protein kinase kinase kinase 1 (Homo sapiens, UniProt Q13233). Nature of the test: Selectivity interaction (Ambit KINOMEscan and KiNATiv profiling in Jurkat cells) EUB0000090b MAP3K1. It counts as cell-based. The following applies: at 1 µM.
The target in test [3] is Activin receptor type-2B (Homo sapiens) (UniProt Q13705). Nature of the test: Selectivity interaction (KinomeScan (DiscoverX)) EUB0001079a ACVR2B. The following applies: at 1 µM.
Activin receptor type-2B (Homo sapiens), sequence (Q13705 whole entry): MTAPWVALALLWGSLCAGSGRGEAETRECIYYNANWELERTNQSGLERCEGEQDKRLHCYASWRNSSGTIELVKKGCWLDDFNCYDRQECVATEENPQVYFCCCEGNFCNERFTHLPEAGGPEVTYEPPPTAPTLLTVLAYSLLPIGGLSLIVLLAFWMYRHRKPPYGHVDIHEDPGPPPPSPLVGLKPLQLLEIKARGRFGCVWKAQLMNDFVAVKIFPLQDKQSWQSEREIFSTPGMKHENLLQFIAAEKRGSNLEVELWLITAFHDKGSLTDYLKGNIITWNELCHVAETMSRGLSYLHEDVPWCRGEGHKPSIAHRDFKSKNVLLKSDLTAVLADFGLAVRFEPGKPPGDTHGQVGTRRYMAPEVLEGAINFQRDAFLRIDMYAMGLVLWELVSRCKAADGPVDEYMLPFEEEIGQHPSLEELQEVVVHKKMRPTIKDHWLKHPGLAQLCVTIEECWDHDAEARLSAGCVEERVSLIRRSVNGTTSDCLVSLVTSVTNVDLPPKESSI
In test [4] the target is Cyclin-dependent kinase 16 (Homo sapiens) (UniProt Q00536). Kind of test: Selectivity interaction (KinomeScan (DiscoverX)) EUB0001049a CDK16. The following applies: at 1 µM.
The target of test [5] is Bone morphogenetic protein receptor type-1A (Homo sapiens, UniProt P36894). Nature of the test: Selectivity interaction (KinomeScan (DiscoverX)) EUB0000655a BMPR1A. The following applies: at 10 µM.
Bone morphogenetic protein receptor type-1A, sequence (P36894 whole entry): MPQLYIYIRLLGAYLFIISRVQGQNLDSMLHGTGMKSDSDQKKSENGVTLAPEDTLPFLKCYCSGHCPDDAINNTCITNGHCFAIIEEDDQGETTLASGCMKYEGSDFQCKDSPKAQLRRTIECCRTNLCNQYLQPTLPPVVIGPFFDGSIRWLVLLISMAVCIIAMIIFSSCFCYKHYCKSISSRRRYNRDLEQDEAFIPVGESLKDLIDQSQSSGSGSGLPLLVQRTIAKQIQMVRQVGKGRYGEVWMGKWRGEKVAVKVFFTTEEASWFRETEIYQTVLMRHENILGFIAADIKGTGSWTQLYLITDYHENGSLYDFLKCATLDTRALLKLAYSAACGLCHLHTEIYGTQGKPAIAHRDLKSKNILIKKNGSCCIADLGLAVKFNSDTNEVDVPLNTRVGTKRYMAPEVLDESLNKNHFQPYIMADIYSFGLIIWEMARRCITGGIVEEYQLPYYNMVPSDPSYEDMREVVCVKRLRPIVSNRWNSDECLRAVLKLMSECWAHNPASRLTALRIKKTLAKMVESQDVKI
In test [6] the target is Serine/threonine-protein kinase PAK 3 (Homo sapiens) (UniProt O75914). Nature of the test: Selectivity interaction (KinomeScan (DiscoverX)) EUB0000655a PAK3. The following applies: at 10 µM.
Serine/threonine-protein kinase PAK 3 (Homo sapiens), sequence (O75914 whole entry, looked up): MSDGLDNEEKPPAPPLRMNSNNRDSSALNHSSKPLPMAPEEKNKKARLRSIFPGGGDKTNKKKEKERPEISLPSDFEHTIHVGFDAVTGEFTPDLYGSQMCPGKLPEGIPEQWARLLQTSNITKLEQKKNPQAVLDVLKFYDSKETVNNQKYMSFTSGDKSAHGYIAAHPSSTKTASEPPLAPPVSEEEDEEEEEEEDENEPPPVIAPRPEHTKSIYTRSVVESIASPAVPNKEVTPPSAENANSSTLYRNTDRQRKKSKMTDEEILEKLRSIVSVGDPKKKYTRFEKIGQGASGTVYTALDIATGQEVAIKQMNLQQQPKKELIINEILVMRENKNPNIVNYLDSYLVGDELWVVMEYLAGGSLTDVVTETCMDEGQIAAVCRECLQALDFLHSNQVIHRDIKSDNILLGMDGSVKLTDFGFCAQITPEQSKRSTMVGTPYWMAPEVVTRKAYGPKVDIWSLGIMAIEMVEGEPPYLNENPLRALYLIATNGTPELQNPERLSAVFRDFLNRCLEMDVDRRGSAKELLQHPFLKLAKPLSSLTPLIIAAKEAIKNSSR
Test [7] concerns the target T2, Histone-lysine N-methyltransferase EHMT2 (Homo sapiens) (UniProt Q96KQ7).
T2 sequence (whole entry): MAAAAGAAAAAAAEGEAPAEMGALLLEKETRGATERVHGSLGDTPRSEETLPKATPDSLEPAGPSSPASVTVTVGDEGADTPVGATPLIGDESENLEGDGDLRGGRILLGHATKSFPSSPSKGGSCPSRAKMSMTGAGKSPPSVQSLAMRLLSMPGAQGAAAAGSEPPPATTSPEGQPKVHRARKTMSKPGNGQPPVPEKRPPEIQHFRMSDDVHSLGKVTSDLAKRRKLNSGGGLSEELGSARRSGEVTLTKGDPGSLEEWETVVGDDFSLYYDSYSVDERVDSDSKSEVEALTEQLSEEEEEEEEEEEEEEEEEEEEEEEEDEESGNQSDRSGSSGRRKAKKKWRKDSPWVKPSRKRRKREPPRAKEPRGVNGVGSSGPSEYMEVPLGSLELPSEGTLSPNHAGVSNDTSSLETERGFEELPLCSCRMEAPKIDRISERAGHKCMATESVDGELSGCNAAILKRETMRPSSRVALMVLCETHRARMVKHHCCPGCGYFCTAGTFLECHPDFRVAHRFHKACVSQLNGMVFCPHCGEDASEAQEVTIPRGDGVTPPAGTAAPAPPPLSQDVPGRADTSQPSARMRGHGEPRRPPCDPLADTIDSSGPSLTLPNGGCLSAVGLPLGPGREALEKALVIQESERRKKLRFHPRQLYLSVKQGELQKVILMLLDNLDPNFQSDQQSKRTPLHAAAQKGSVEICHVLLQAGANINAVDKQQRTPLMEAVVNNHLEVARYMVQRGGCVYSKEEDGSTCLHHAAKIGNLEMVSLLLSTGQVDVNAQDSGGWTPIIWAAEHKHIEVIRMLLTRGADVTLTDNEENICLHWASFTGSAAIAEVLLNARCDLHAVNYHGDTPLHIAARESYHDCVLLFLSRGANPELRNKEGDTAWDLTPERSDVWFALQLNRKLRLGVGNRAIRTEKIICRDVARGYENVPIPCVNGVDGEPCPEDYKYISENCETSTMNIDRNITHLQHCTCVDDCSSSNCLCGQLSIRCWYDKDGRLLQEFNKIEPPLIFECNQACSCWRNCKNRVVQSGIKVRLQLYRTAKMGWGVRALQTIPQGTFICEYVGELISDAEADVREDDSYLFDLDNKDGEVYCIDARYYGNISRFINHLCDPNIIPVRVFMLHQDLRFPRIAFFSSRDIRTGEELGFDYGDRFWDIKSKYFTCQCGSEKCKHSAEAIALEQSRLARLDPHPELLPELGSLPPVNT
The following applies: at 10 µM.

The target of test [8] is Rho-associated protein kinase 1 (Homo sapiens) (UniProt Q13464). Nature of the test: Selectivity interaction (KinomeScan (DiscoverX)) EUB0000229b ROCK1. The following applies: at 10 µM.
Rho-associated protein kinase 1 (Homo sapiens), sequence (Q13464 2-1354 limits assumed): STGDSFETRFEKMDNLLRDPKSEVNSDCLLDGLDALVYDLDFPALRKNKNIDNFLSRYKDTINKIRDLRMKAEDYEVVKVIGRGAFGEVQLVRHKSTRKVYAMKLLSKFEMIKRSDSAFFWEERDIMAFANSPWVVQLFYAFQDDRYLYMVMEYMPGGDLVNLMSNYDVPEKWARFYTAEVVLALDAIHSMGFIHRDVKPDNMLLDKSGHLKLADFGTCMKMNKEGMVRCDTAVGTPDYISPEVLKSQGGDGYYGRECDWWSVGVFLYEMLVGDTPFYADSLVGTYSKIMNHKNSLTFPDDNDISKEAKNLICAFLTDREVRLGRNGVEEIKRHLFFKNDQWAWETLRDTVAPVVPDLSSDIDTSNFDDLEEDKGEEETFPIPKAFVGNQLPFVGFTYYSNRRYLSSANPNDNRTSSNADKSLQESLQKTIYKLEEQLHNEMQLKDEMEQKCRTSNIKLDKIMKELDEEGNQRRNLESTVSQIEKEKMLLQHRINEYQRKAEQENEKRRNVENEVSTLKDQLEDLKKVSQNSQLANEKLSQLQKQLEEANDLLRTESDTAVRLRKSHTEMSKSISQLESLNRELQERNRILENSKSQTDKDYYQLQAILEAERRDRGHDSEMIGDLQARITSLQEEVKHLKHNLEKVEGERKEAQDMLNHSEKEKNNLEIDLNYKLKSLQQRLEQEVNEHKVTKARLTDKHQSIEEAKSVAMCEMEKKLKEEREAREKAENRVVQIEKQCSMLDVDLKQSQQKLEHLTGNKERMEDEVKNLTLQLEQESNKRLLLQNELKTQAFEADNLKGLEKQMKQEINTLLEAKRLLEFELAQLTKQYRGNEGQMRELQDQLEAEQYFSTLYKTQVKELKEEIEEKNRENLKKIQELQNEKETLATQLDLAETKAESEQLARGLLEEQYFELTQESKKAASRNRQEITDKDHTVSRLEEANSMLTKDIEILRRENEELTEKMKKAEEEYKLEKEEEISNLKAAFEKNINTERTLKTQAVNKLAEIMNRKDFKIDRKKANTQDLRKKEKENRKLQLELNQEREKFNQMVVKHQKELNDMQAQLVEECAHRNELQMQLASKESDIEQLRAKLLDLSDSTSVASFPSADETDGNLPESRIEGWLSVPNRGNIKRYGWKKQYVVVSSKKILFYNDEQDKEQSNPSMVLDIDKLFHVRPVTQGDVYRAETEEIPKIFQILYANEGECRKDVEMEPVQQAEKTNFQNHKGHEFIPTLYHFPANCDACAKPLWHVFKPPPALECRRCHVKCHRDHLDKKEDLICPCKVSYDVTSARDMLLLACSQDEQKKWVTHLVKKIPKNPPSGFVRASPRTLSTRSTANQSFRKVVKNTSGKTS
Test [9] deals with Protein polybromo-1 (Homo sapiens) (UniProt Q86U86). Kind of test: Selectivity interaction (Human bromodomain panel (DSF assay)) EUB0000233b PBRM1. (In general: In DSF a fluorescence change marks the thermal transition of the protein.)
Test [10] deals with Histone acetyltransferase KAT2B (Homo sapiens, UniProt Q92831). Kind of test: Selectivity interaction (Human bromodomain panel (DSF assay)) EUB0000233b KAT2B.
Histone acetyltransferase KAT2B, sequence (Q92831 whole entry, looked up): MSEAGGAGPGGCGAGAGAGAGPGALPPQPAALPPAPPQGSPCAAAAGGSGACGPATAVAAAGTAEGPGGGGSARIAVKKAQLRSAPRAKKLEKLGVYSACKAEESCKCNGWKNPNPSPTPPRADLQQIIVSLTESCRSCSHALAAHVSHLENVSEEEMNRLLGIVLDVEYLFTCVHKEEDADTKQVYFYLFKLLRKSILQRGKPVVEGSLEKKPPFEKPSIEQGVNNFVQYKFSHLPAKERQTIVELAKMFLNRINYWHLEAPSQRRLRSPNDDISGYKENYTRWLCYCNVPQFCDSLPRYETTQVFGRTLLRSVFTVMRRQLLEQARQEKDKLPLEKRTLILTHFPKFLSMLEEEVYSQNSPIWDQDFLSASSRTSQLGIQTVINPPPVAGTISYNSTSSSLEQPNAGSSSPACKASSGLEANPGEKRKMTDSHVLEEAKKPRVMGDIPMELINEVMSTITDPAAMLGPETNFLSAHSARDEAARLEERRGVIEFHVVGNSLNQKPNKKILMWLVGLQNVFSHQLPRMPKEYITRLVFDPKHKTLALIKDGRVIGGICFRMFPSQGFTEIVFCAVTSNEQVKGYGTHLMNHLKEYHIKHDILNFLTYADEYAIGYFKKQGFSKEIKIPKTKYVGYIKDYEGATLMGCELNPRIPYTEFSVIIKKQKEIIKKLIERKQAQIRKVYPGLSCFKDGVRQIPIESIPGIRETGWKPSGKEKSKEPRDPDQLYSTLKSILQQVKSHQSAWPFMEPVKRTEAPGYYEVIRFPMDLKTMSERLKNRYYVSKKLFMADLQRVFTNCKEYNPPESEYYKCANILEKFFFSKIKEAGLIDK
In test [11] the target is Calcium/calmodulin-dependent protein kinase type II subunit delta (Homo sapiens) (UniProt Q13557). Nature of the test: Selectivity interaction (Kinase panel (DSF assay)) EUB0001559a CAMK2D.
Test [12] concerns the target Ribosomal protein S6 kinase alpha-1 (Homo sapiens, UniProt Q15418). Kind of test: Selectivity interaction (Kinase panel (KiNativ target engagement assay in Jurkat cells)) EUB0001635a RPS6KA1. It counts as cell-based. The following applies: Selectivity number of off-targets 0.0, Selectivity number of targets 233.0, Source Knowledge https://www.sciencedirect.com/science/article/pii/S2451945619300674?via%3Dihub, at 1 µM.

In test [13] the target is Interferon-induced, double-stranded RNA-activated protein kinase (Homo sapiens) (UniProt P19525). Kind of test: Selectivity interaction (KinomeScan (DiscoverX)) EUB0000618a EIF2AK2. The following applies: at 10 µM.
Interferon-induced, double-stranded RNA-activated protein kinase (Homo sapiens), sequence (P19525 whole entry): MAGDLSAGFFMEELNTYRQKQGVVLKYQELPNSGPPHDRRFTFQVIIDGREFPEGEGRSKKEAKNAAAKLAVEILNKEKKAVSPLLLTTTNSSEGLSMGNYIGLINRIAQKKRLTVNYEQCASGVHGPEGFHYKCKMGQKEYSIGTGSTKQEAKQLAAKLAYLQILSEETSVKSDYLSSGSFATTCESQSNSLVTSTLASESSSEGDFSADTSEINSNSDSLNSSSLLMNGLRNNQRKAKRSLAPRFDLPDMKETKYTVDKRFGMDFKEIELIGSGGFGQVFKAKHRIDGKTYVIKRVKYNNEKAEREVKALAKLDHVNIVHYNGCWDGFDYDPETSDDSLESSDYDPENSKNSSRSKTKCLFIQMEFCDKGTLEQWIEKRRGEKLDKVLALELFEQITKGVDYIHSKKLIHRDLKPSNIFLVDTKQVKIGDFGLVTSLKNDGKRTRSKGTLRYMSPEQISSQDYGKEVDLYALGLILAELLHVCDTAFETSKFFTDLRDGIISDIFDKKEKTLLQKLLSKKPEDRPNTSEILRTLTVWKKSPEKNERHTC

Ribosomal protein S6 kinase alpha-1, sequence (Q15418 whole entry): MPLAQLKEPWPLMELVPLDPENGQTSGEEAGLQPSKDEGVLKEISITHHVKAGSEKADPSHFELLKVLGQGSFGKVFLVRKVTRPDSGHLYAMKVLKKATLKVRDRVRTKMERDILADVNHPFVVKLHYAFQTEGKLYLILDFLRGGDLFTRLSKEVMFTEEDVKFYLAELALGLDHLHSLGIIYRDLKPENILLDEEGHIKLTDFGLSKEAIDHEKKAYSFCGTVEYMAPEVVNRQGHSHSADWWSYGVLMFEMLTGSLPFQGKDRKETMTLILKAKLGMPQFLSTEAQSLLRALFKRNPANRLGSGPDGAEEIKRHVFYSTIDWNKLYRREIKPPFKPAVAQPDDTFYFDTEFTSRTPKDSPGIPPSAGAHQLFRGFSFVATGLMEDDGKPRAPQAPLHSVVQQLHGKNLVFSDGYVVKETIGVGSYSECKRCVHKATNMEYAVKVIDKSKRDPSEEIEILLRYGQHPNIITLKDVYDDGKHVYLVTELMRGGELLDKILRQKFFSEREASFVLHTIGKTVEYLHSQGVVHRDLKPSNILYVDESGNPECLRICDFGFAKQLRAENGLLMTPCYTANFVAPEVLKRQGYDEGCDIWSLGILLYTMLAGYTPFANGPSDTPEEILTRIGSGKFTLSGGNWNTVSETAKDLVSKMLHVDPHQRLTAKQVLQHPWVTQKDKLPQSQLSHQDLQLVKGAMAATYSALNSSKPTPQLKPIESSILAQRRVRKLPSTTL

As for `Cc1ccc(-c2ccc3c(ccc4sc5c(c43)NC[C@@H](C)NC5=O)n2)cn1`, the % of inhibition in test [1] is -9%.

As to `CN(C)C/C=C/C(=O)Nc1ccc(C(=O)N2CCCC(Nc3ncc(Cl)c(-c4c[nH]c5ccccc45)n3)C2)cc1` (stereo not drawn), in test [2], the % of control is 82%.

`Nc1cnc(N2CCc3cc(S(=O)(=O)Nc4c(F)cc(Cl)cc4F)cc(N4CCCC4=O)c32)nc1` [TP-020n]: the % of control in test [3] worked out at 80%.

On to `COc1cc(Nc2nc(C)cc(-c3cnn4nc(OC)ccc34)n2)cc(C(F)(F)F)c1`, for which the % of control in [4] is 74%.

As for `CN(C)CCOc1ccc(-c2nc(-c3ccncc3)c(-c3ccc4c(c3)CC/C4=N\O)[nH]2)cc1`, the % of control in test [5] came to 100%; in [6], 72%.

The molecule `CNCCN1CCC(c2cc(CN(C)C(=O)c3cccc(Oc4ccccc4)c3)ccn2)CC1` displayed a % activity in [7] of over 90%.

In test [8], `COc1cc(N(C)c2ccnc3ccc(C(F)(F)F)cc23)cc(OC)c1OC` showed a % binding of 78%.

As to `CN(C)CCCOc1ccc(-c2cc(NCCCn3cccn3)nc(S(C)(=O)=O)n2)cc1`, the dTM in test [9] and in [10] was under 2 K in each case.

Regarding `CN(C(=O)c1cnn2cccnc12)c1cc2c(cc1N1CCOCC1)C(=O)N(C[C@@H](F)C(C)(C)O)C2`, the dTM in test [11] is 0 K.

Turning to `C=CC(=O)Nc1ccc(C(=O)Nc2[nH]nc3c2CN(C(=O)N[C@H](CN(C)C)c2ccccc2)C3(C)C)cc1`, the % of engagement in test [12] was -0.1%.

`O[C@H]1CC[C@H](Nc2ncc3nc(Nc4c(F)cc(F)cc4F)n([C@H]4CCOC4)c3n2)CC1`: the % of control in test [13] is 100%.

These data come from ChEMBL document CHEMBL5465560, “Selectivity Literature for EUbOPEN Chemogenomic Library” (2024).
